Source: the supplement of paper PMC11208160

Experiment: recombinant UMI read abundance after kanamycin selection (control-corrected) (log10(CPM+1)); higher = more efficient recombination; extreme values may be limits of the assay; sequences stand for … in AGTGCAGAGAAAATCGGCCAGTTTTCTCTGCCTGCAGTCCGCATGCCGTGGGACCCCTTGGGTTCTAACCTGTTGCCTAGATTTATGCAGCGGACTGCCTTTCTCCCAAAGTGATAAACCGG…AGGTTGGTTTCACT; site = the 11-nt donor
Procedure, shortened: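 Reported values are log10(CPM+1) from a pooled Escherichia coli screen of donor and donor-binding-loop pairs for the IS621 bridge recombinase. Selection used IPTG (0.07 mM) plus kanamycin, against unselected plating, each in two replicates. Recombinant UMIs were amplified across the donor–target junction, sequenced, converted to CPM, averaged over replicates and scaled by control-derived factors.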
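Also: IS621 bridge recombinase in Escherichia coli cells against a fixed T5 target plasmid.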

Sequence | recombinant UMI read abundance (log10)
CAACCGCCATGGACCGGTTTTCCCGGTAATCCGTATTTGTG (site CAATCGCCTCA) | 0.0138
CGATCATCATGGACCGGTTTTCCCGGTAATCCGTATTTGCT (site CGGTCATCTTG) | 0.00419
AACTTGGCATGGACCGGTTTTCCCGGTAATCCGTATTTGGA (site CACTTGGCTTC) | 0.467
CCGTAAGCATGGACCGGTTTTCCCGGTAATCCGTATTTGTG (site CCGTTAGCTCA) | 0.0113
CCCCACACATGGACCGGTTTTCCCGGTAATCCGTATTTGTA (site CCCCAGACTTA) | 0.0244
GTCGAGGCATGGACCGGTTTTCCCGGTAATCCGTATTTGTG (site GTGGAGGCTCA) | 0.0124
TGGACATCATGGACCGGTTTTCCCGGTAATCCGTATTTGCT (site TGGACATCTAG) | 1.69
GATTTTCCATGGACCGGTTTTCCCGGTAATCCGTATTTGCT (site GATTGTCCTAG) | 0.014
CTTGTGTCATGGACCGGTTTTCCCGGTAATCCGTATTTGAC (site CTAGTATCTGT) | 0
CTTCTCTCATGGACCGGTTTTCCCGGTAATCCGTATTTGTA (site CTTATCTCTTA) | 0.00276
TGCTGCTCATGGACCGGTTTTCCCGGTAATCCGTATTTGGT (site TGCTGCTCTAC) | 0.182
TAGAATACATGGACCGGTTTTCCCGGTAATCCGTATTTGCA (site TCGAATACTTG) | 0.00888
CCGCACACATGGACCGGTTTTCCCGGTAATCCGTATTTGTA (site CCTCACACTTA) | 0.00457
CAGTCGACATGGACCGGTTTTCCCGGTAATCCGTATTTGCG (site CAGTCGACTCA) | 0
GAGCTCGCATGGACCGGTTTTCCCGGTAATCCGTATTTGAT (site GAGCTCTCTAT) | 1.37
CGACCCTCATGGACCGGTTTTCCCGGTAATCCGTATTTGCT (site CGATCATCTAG) | 0
CAAGCCACATGGACCGGTTTTCCCGGTAATCCGTATTTGGG (site CAAGTCACTCC) | 0.0106
CCCATGTCATGGACCGGTTTTCCCGGTAATCCGTATTTGTC (site CCCATGTCTGA) | 1.64
ATACGGACATGGACCGGTTTTCCCGGTAATCCGTATTTGAA (site ATACGGACTTT) | 1.39
CGACGTACATGGACCGGTTTTCCCGGTAATCCGTATTTGCT (site CGCCGTACTAG) | 0.0167
TCCTCCGCATGGACCGGTTTTCCCGGTAATCCGTATTTGCG (site TCCGCCGCTCG) | 0
CTCCACACATGGACCGGTTTTCCCGGTAATCCGTATTTGCT (site CTCGACACTAG) | 0
ACAGAAACATGGACCGGTTTTCCCGGTAATCCGTATTTGCA (site ACAGTATCTTG) | 0
CAGCTCACATGGACCGGTTTTCCCGGTAATCCGTATTTGAT (site AAGCTCACTAT) | 0.444
GTCGAGGCATGGACCGGTTTTCCCGGTAATCCGTATTTGTG (site GTCGAGGCTCA) | 0.765

Sequence | recombinant UMI read abundance (log10)
AATTATGCATGGACCGGTTTTCCCGGTAATCCGTATTTGGA (site TATTATGCTTC) | 0.862
AGTAACGCATGGACCGGTTTTCCCGGTAATCCGTATTTGGG (site AGTAACGCTCC) | 0.161
CTTCTGTCATGGACCGGTTTTCCCGGTAATCCGTATTTGTA (site CTTCTATCTTA) | 2.41
AACCAAGCATGGACCGGTTTTCCCGGTAATCCGTATTTGAG (site AACCAAGCTCT) | 1.8
GACAAACCATGGACCGGTTTTCCCGGTAATCCGTATTTGGT (site GCCAAACCTAC) | 0
TAGTTGACATGGACCGGTTTTCCCGGTAATCCGTATTTGCT (site TAGTTGACTAG) | 2.13
TAATGAGCATGGACCGGTTTTCCCGGTAATCCGTATTTGGG (site TAATGAACTCC) | 0.0101
GATTGAACATGGACCGGTTTTCCCGGTAATCCGTATTTGAC (site GATTGCACTGT) | 0.00522
AATGGGTCATGGACCGGTTTTCCCGGTAATCCGTATTTGAC (site AATGTGTCTGT) | 0
CCCATATCATGGACCGGTTTTCCCGGTAATCCGTATTTGCC (site CCCATATCTGG) | 0.328
TCAAGTTCATGGACCGGTTTTCCCGGTAATCCGTATTTGTC (site TCAAGTTCTGA) | 2
GGACAGCCATGGACCGGTTTTCCCGGTAATCCGTATTTGCA (site GGACAGCCTTG) | 1.07
CCGGAAACATGGACCGGTTTTCCCGGTAATCCGTATTTGCA (site CTGGAAACTTG) | 0
GTTAGACCATGGACCGGTTTTCCCGGTAATCCGTATTTGGC (site GTTAGACCTGC) | 0
GGGTACTCATGGACCGGTTTTCCCGGTAATCCGTATTTGCT (site GGGTACTCTAG) | 3.34
CCTTTGTCATGGACCGGTTTTCCCGGTAATCCGTATTTGGA (site CCTTTGTCTTC) | 0.00278
TATATGGCATGGACCGGTTTTCCCGGTAATCCGTATTTGTG (site TATATGGCTCA) | 0.368
CTTTACACATGGACCGGTTTTCCCGGTAATCCGTATTTGCT (site CTATACACTAG) | 2.27
TTTGCTGCATGGACCGGTTTTCCCGGTAATCCGTATTTGTG (site TTCGCTGCTCA) | 0.00352
CCATCGACATGGACCGGTTTTCCCGGTAATCCGTATTTGTT (site CAATCGACTAA) | 0.00346
CATTGGACATGGACCGGTTTTCCCGGTAATCCGTATTTGAC (site AATTGGACTGT) | 0.565
GTTGGCCCATGGACCGGTTTTCCCGGTAATCCGTATTTGAG (site GTTGGCCCTCT) | 0.0112
CGCGAGTCATGGACCGGTTTTCCCGGTAATCCGTATTTGCC (site CGCGAGTCTGG) | 2.43
CCTAATACATGGACCGGTTTTCCCGGTAATCCGTATTTGTC (site CCTAATACTGC) | 0
CGTTTGGCATGGACCGGTTTTCCCGGTAATCCGTATTTGCT (site CGTTTGGCTAA) | 0.00833

Sequence | recombinant UMI read abundance (log10)
GGGGCACCATGGACCGGTTTTCCCGGTAATCCGTATTTGGA (site GGGGCACCTTT) | 0.0158
TGGGCGGCATGGACCGGTTTTCCCGGTAATCCGTATTTGGC (site TGGTCGGCTGC) | 0
GCCTAAACATGGACCGGTTTTCCCGGTAATCCGTATTTGGT (site GCCTAAACTAC) | 1.07
TGTTGAGCATGGACCGGTTTTCCCGGTAATCCGTATTTGCA (site TGTTGAGCTTG) | 0.98
GGCACGACATGGACCGGTTTTCCCGGTAATCCGTATTTGCG (site GGCACGACTCG) | 0.903
ACAAGTGCATGGACCGGTTTTCCCGGTAATCCGTATTTGGT (site ACCAGTGCTAC) | 0.897
GGCCTAGCATGGACCGGTTTTCCCGGTAATCCGTATTTGTT (site GGCCTAGCTAA) | 0.00233
GCTGTTACATGGACCGGTTTTCCCGGTAATCCGTATTTGCG (site GCTGTTACTCG) | 1.48
CTCCGTACATGGACCGGTTTTCCCGGTAATCCGTATTTGCT (site CCCCGTACTAG) | 1.28
CGCACCGCATGGACCGGTTTTCCCGGTAATCCGTATTTGCA (site CGCACCGCTTG) | 2.35
CGCCGGACATGGACCGGTTTTCCCGGTAATCCGTATTTGCT (site CGCCGTACTAG) | 0
CGGAATCCATGGACCGGTTTTCCCGGTAATCCGTATTTGTT (site CGGCCTCCTAA) | 0
GCTTGCACATGGACCGGTTTTCCCGGTAATCCGTATTTGAT (site GCTTGCGCTAT) | 0.0165
CGCCGTTCATGGACCGGTTTTCCCGGTAATCCGTATTTGCT (site CGCCGTGCTAG) | 0
AGGGTTTCATGGACCGGTTTTCCCGGTAATCCGTATTTGAA (site AGGGTTTCTTT) | 2.46
CCCCACACATGGACCGGTTTTCCCGGTAATCCGTATTTGTA (site GCCCACACTTA) | 0.00479
GCTGCTCCATGGACCGGTTTTCCCGGTAATCCGTATTTGCT (site GCTGCTCCTAG) | 0.276
CATTGGACATGGACCGGTTTTCCCGGTAATCCGTATTTGAC (site CATTGGACTGT) | 1.96
GGTATGTCATGGACCGGTTTTCCCGGTAATCCGTATTTGTT (site GGTACGTCTAA) | 0.0321
CGGAAGCCATGGACCGGTTTTCCCGGTAATCCGTATTTGTC (site CGGAATCCTAA) | 0.00548
ACACGGACATGGACCGGTTTTCCCGGTAATCCGTATTTGTC (site ACACGTACTGA) | 0
ACCTAGCCATGGACCGGTTTTCCCGGTAATCCGTATTTGGG (site ACCTAGGCTCC) | 0.0311
GCAGCGTCATGGACCGGTTTTCCCGGTAATCCGTATTTGGA (site GCAGCGTCTTC) | 2.37
TGGGAAACATGGACCGGTTTTCCCGGTAATCCGTATTTGGT (site TGGGAAACTAC) | 1.29
AGGATCCCATGGACCGGTTTTCCCGGTAATCCGTATTTGTG (site AGGATCCCTCA) | 0.753
